Measurements reported in patent US20080207632A1, “PROTEIN KINASE INHIBITORS” (SUPERGEN, INC., priority 2006, published 2008).
Where two headings read alike, the source gives them in different places.

Tests used:
Type in all cases: cell-based
MCF-7 (breast) = assay: in vitro cytotoxicity assay (Cell-Titer-Glo), MCF-7; conditions: Homo sapiens
Description: (§1) To evaluate cell killing of cancer cell lines, an in vitro cytotoxicity assay was performed. The tumor cell lines used were purchased from the American Type Culture Collection, and are identified as follows: Panc-1 (pancreas), MiaPaCa-2 (pancreas), MCF-7 (breast), HT-29 (colon), U2-OS (osteosarcoma), OVCAR-3 (ovary), HepG2 (hepatocellular carcinoma) and TT (medullary thyroid). The assay utilized the Cell-Titer-Glo Non-Radioactive Cell Proliferation Assay (Promega Corp., Madison, Wis.). First the cells were cultured in RPMI 1640 medium (Cat# 21870-076, Invitrogen Corporation) supplemented with 300 mg/L L-glutamine, 100 units/ml penicillin, 100 μg/ml streptomycin and 10% fetal bovine serum. All the cell lines were incubated in a humidified incubator at 37° C. with 5% CO2 atmosphere.
(§2) Cells were plated at a density of 2000 to 10000 cells per well, depending on their growth rate, in 0.09 mL medium on day 0 in 96-well Microlite TCT microtiter plates (7418, Thermo Labsystems, Franklin, Mass.). On day 1, 10 μL of serial dilutions of the individual compounds were added to the plates in replicates of 3. After incubation for 4 days at 37° C. in a humidified incubator, the cells were lysed in the Cell-Titer-Glo reagent, which also contains luciferase enzyme. The luciferase reaction utilizes ATP released from lysed cells to produce light, the intensity of which is linearly related to the amount of ATP. Thus, the amount of light produced is a reflection of the number of cells remaining in the well after drug treatment. This luminescence was measured using a Luminoskan luminometer (Thermo Electron Corp., Vantaa, Finland) Data were expressed as the percentage of survival of control cells calculated from the luminescence corrected for background. The surviving percent of cells was determined by dividing the mean luminescence values of the treated wells by the mean luminescence values of the control and multiplying by 100.
as §1, with “Briefly,” for “To evaluate cell killing of cancer cell lines, an in vitro cytotoxicity assay was performed. The”, “thyroid), PC-3 (prostate) and A549 (lung).” for “thyroid).”
as §1, with “carcinoma), PC-3 (prostate),” for “carcinoma)”, “A549 (lung).” for “TT (medullary thyroid).”
(§3) Cells were plated at a density of 2000 to 10000 cells per well, depending on their growth rate, in 0.09 mL medium on day 0 in 96-well Microlite TCT microtiter plates (#7418, Thermo Labsystems, Franklin, Mass.). On day 1, 10 μL of serial dilutions of the individual compounds were added to the plates in replicates of 3. After incubation for 4 days at 37° C. in a humidified incubator, the cells were lysed in the Cell-Titer-Glo reagent, which also contains luciferase enzyme. […]

HT-29 (colon) = assay: in vitro cytotoxicity assay (Cell-Titer-Glo), HT-29; conditions: Homo sapiens
Description: as §1, §2
as §1, with “Briefly,” for “To evaluate cell killing of cancer cell lines, an in vitro cytotoxicity assay was performed. The”, “thyroid), PC-3 (prostate) and A549 (lung).” for “thyroid).”
as §1, with “carcinoma), PC-3 (prostate),” for “carcinoma)”, “A549 (lung).” for “TT (medullary thyroid).”
as §3

OVCAR-3 (ovary) = assay: in vitro cytotoxicity assay (Cell-Titer-Glo), OVCAR-3; conditions: Homo sapiens
Description: as §1, §2
as §1, with “Briefly,” for “To evaluate cell killing of cancer cell lines, an in vitro cytotoxicity assay was performed. The”, “thyroid), PC-3 (prostate) and A549 (lung).” for “thyroid).”
as §1, with “carcinoma), PC-3 (prostate),” for “carcinoma)”, “A549 (lung).” for “TT (medullary thyroid).”
as §3

PC-3 (prostate) = assay: in vitro cytotoxicity assay (Cell-Titer-Glo), PC-3
Description: as §1, with “Briefly,” for “To evaluate cell killing of cancer cell lines, an in vitro cytotoxicity assay was performed. The”, “thyroid), PC-3 (prostate) and A549 (lung).” for “thyroid).”
as §2
as §1, with “carcinoma), PC-3 (prostate),” for “carcinoma)”, “A549 (lung).” for “TT (medullary thyroid).”
as §2, with “(#7418,” for “(7418,”, “100. […]” for “100.”

A549 (lung) = assay: in vitro cytotoxicity assay (Cell-Titer-Glo), A549; conditions: Homo sapiens
Description: as §1, with “Briefly,” for “To evaluate cell killing of cancer cell lines, an in vitro cytotoxicity assay was performed. The”, “thyroid), PC-3 (prostate) and A549 (lung).” for “thyroid).”
as §2
as §1, with “carcinoma), PC-3 (prostate),” for “carcinoma)”, “A549 (lung).” for “TT (medullary thyroid).”
as §2, with “(#7418,” for “(7418,”, “100. […]” for “100.”

[1] = MCF7, 96 h, Example 20, 4 days, read-out: Cell-based IC50 values MCF-7
[2] = HT-29, 96 h, Example 20, 4 days, read-out: Cell-based IC50 values HT-29
[3] = OVCAR-3, 96 h, Example 20, 4 days, read-out: Cell-based IC50 values OVCAR-3
[4] = 96 h, Example 20, 4 days, read-out: Cell-based IC50 values PC-3
[5] = A549, 96 h, Example 20, 4 days, read-out: Cell-based IC50 values A549
[6] = MCF7, 96 h, Table 9, 4 days, read-out: IC50 MCF-7
[7] = HT-29, 96 h, Table 9, 4 days, read-out: IC50 HT-29
[8] = OVCAR-3, 96 h, Table 9, 4 days, read-out: IC50 OVCAR-3
[9] = 96 h, Table 9, 4 days, read-out: IC50 PC-3
[10] = A549, 96 h, Table 9, 4 days, read-out: IC50 A549

| Compound | IC50 (MCF-7 (breast); [1]) [µM] | IC50 (HT-29 (colon); [2]) [µM] | IC50 (OVCAR-3 (ovary); [3]) [µM] | IC50 (PC-3 (prostate); [4]) [µM] | IC50 (A549 (lung); [5]) [µM] | also measured |
| --- | --- | --- | --- | --- | --- | --- |
| CC(=O)NS(=O)(=O)c1ccc(NC(=S)N2CCN(c3ncnc4[nH]c5cc(C(F)(F)F)c(Cl)cc5c34)CC2)cc1 [Compound 1-1, 4-(6-Chloro-7-trifluoromethyl-9H-pyrimido[4,5-b]indol-4-yl)-piperazine-1-carbothioic acid (4-acetylsulfamoyl-phenyl)-amide] | 14.6 | 5.01 | 13.1 | 52.3 | 53.8 | IC50 (MCF-7 (breast); MCF7, 96 h, Example 18, 4 days, read-out: calculated IC50 MCF-7): 22.5 µM; IC50 (MCF-7 (breast); MCF7, Table 10, 96 hours, read-out: IC50 MCF-7 (inhibit cell growth to 50% of untreated)): 22.5 µM; IC50 (HT-29 (colon); HT-29, 96 h, Example 18, 4 days, read-out: calculated IC50 HT-29): 14.7 µM; IC50 (HT-29 (colon); HT-29, Table 10, 96 hours, read-out: IC50 HT-29 (inhibit cell growth to 50% of untreated)): 14.7 µM; IC50 (OVCAR-3 (ovary); OVCAR-3, 96 h, Example 18, 4 days, read-out: calculated IC50 OVCAR-3): 25 µM; IC50 (OVCAR-3 (ovary); OVCAR-3, Table 10, 96 hours, read-out: IC50 OVCAR-3 (inhibit cell growth to 50% of untreated)): 25 µM; IC50 (PC-3 (prostate); Table 10, 96 hours, read-out: IC50 PC-3 (inhibit cell growth to 50% of untreated)): 28.4 µM; IC50 (A549 (lung); A549, Table 10, 96 hours, read-out: IC50 A549 (inhibit cell growth to 50% of untreated)): 19 µM |
| COc1cc2[nH]c3ncnc(N4CCN(C(=S)Nc5ccc(S(=O)(=O)NC(C)=O)cc5)CC4)c3c2cc1OC [Compound 1-2, 4-(6,7-Dimethoxy-9H-pyrimido[4,5-b]indol-4-yl)-piperazine-1-carbothioic acid (4-acetylsulfamoyl-phenyl)-amide] | 126 | 93.6 | 29.4 | 164 | 194 | – |
| CC(=O)NS(=O)(=O)c1ccc(NC(=S)N2CCN(c3ncnc4[nH]c5ccc(Cl)cc5c34)CC2)cc1 [Compound 1-3, 4-(6-chloro-9H-pyrimido[4,5-b]indol-4-yl)-piperazine-1-carbothioic acid (4-acetylsulfamoyl-phenyl)-amide] | 209 | 29.8 | 48 | 47.3 | 37 | – |
| CC(=O)NS(=O)(=O)c1ccc(NC(=S)N2CCN(c3ncnc4[nH]c5cc(F)ccc5c34)CC2)cc1 [Compound 1-4] | 249 | 103 | 79 | 160 | 72.7 | – |
| COc1cc2c(cc1O)[nH]c1ncnc(N3CCN(C(=S)Nc4ccc(S(=O)(=O)NC(C)=O)cc4)CC3)c12 [Compound 1-8] | 83.1 | 27.3 | 82.4 | – | – | – |
| COc1cc2[nH]c3ncnc(N4CCN(C(=S)Nc5ccc(S(=O)(=O)N6CCOCC6)cc5)CC4)c3c2cc1OC [Compound 1-26] | 14.7 | 176 | 156 | 22.3 | 130 | – |
| COc1cc2[nH]c3ncnc(N4CCN(C(=S)Nc5ccc(NC(=O)C6CC6)cc5)CC4)c3c2cc1OC [Compound 1-34] | 76.9 | 138 | 111 | 21.9 | 186 | – |
| COc1cc2[nH]c3ncnc(N4CCN(C(=S)Nc5ccc(NC(C)=O)cc5)CC4)c3c2cc1OC [Compound 1-42] | 4.62 | 140 | 85.1 | 189 | 160 | – |
| COc1cc2[nH]c3ncnc(N4CCN(C(=S)Nc5ccc(S(N)(=O)=O)cc5)CC4)c3c2cc1OC [Compound 1-107] | > 300 | > 300 | 176 | 2.33 | 51.5 | – |
| COc1cc2[nH]c3ncnc(N4CCN(C(=S)Nc5ccc(S(C)(=O)=O)cc5)CC4)c3c2cc1OC [Compound 1-115] | 87.8 | 97.4 | 175 | 75.7 | 149 | – |
| COc1cc2[nH]c3ncnc(N4CCN(C(=S)Nc5ccc(S(=O)(=O)Nc6ccc(F)cc6)cc5)CC4)c3c2cc1OC [Compound 2-3, 4-(6,7-dimethoxy-9H-pyrimido[4,5-b]indol-4-yl)-N-(4-(N-(4-fluorophenyl)sulfamoyl)phenyl)piperazine-1-carbothioamide] | – | – | – | – | – | IC50 (MCF-7 (breast); [6]): 8.43 µM; IC50 (HT-29 (colon); [7]): 6.42 µM; IC50 (OVCAR-3 (ovary); [8]): 9.14 µM; IC50 (PC-3 (prostate); [9]): 8.78 µM; IC50 (A549 (lung); [10]): 23 µM |
| COc1ccc2c(c1)[nH]c1ncnc(N3CCN(C(=S)Nc4ccc(S(=O)(=O)Nc5ccc(F)cc5)cc4)CC3)c12 [Compound 2-5, 4-(7-methoxy-9H-pyrimido[4,5-b]indol-4-yl)-N-(4-(N-(4-fluorophenyl)sulfamoyl)phenyl)piperazine-1-carbothioamide] | – | – | – | – | – | IC50 (MCF-7 (breast); [6]): 8.11 µM; IC50 (HT-29 (colon); [7]): 6.93 µM; IC50 (OVCAR-3 (ovary); [8]): 6.79 µM; IC50 (PC-3 (prostate); [9]): 7.68 µM; IC50 (A549 (lung); [10]): 6.73 µM |
| Cc1ccc(NS(=O)(=O)c2ccc(NC(=S)N3CCN(c4ncnc5[nH]c6cc(Cl)c(N7CCOCC7)cc6c45)CC3)cc2)cc1 [Compound 2-9, 4-(7-chloro-6-morpholino-9H-pyrimido[4,5-b]indol-4-yl)-N-(4-(N-tolylsulfamoyl)phenyl)piperazine-1-carbothioamide] | – | – | – | – | – | IC50 (MCF-7 (breast); [6]): 8.21 µM; IC50 (HT-29 (colon); [7]): 8 µM; IC50 (OVCAR-3 (ovary); [8]): 7.61 µM; IC50 (PC-3 (prostate); [9]): 8.25 µM; IC50 (A549 (lung); [10]): 19.4 µM |
